Tested on: Hela cells
Assay: Transfection of Hela cell line, DNA vectors
Type: cell-based
Details: 75 ng plasmid DNA, GFP cells / total cells
Procedure: 1. The compound (0.01 mmol) prepared in Example 1 was dissolved in 1 mL of anhydrous ethanol. After ultrasonically dissolved, 10 μL of the resultant amino lipid solution in ethanol was taken and mixed with 5 μL of DOPE solution in ethanol (0.01 m), and then to the obtained mixture was added 35 μL of 0.2M sodium acetate buffer (pH 5.6), and 50 μL of liposome solution was prepared by vortex at a constant rotating speed for 30 s. 4 μL was taken from the 50 μL liposome solution and added to 46 μL of 0.02M sodium acetate buffer (pH 5.6), and the final liposome solution was formed by vortex at a constant rotating speed for 30 s. 5 μL was taken from the final liposome solution and mixed with 75 ng plasmid DNA (psin-EGFP-IRES-Puro, Clontech) dissolved in 5 μL of 0.02 M sodium acetate buffer, and was allowed to stay at room temperature for 30 min to form a lipid/DNA transfection complex.
2. 10 μL of the lipid/DNA transfection complex was incubated at room temperature for 30 min, followed by addition of 90 μL of fresh resuspended cells (3-5×10^4 cells) and mixing with a pipette. 100 μL of cells+lipid/DNA complex was transferred to separate wells of a 96-well culture plate immediately, and placed in an incubator containing 5% CO2 at 37° C.
3. Hoechst33258 (Invitrogen) was added at a final concentration of 0.2 μg/mL to the cells 20 to 24 hours after initial cell transfection, and cultured in darkness at 37° C. for 15 min. Afterwards, the cells were washed once with a PBS solution, and then added with medium for culture for 20 to 24 h.
4. The cells were placed in a high-throughput confocal microscope (Molecular Devices ImageXpress), and four visual fields of the image of the cells were captured for each well, and images at three laser wavelengths were captured for each sample: bright field images of cells (FIG. 2(a) and FIG. 2(b)), Hoechst-staining images showing total nuclei (FIG. 2(c) and FIG. 2(d)) and GFP images showing success in transfection with the plasmid DNA and the expression of GFP (FIG. 2(e) and FIG. 2(f)). MetaXpress software was used to separately count the cells in the Hoechst-staining images and GFP images, and then the number of cells expressing GFP was divided by the total number of nuclei to give the absolute cell transfection efficiency. The absolute transfection efficiency was calculated as follows: […]
(§1) Cell line: Hela cells (ATCC 35241)
(§2) Medium: DMEM supplemented with 10% fetal bovine serum (Invitrogen)
(§3) Screening: cell transfection on 96-well plates
Detection (readout): percentage of the number of GFP fluorescent cells relative to the total number of cells (the total number of cells was determined using nucleus dye Hoechst). Lipofectamine2000 (Invitrogen) was used as the positive control, according to the manufacturer's instructions.
Method: the experimental method was basically the same with Example 4.

SMILES	Absolute DNA transfection efficiency in Hela cells [%]
CCCCCCCCCCCSc1nc(NCCN(CC)CC)nc(SCCCCCCC)n1 [Compound S7S11D7]	5.2
CCCCCCCCCCCCSc1nc(NCCN(C)C)nc(SCCCCCCC)n1 [Compound S7S12D1]	4.2
CCCCCCCCCCCCSc1nc(NCCN2CCOCC2)nc(SCCCCCCC)n1 [Compound S7S12D2]	9.2
CCCCCCCCCCCCSc1nc(NCCN2CCCCC2)nc(SCCCCCCC)n1 [Compound S7S12D4]	4.7
CCCCCCCCCCCCSc1nc(NCCN(CC)CC)nc(SCCCCCCC)n1 [Compound S7S12D7]	3.5
CCCCCCCCCCCNc1nc(NCCN(C)C)nc(SCCCCCCCC)n1 [Compound S8N11D1]	21.12
CCCCCCCCCCCNc1nc(NCCN2CCOCC2)nc(SCCCCCCCC)n1 [Compound S8N11D2]	12.7
CCCCCCCCCCCNc1nc(NCCN2CCCCC2)nc(SCCCCCCCC)n1 [Compound S8N11D4]	7.6
CCCCCCCCCCCNc1nc(NCCN(CC)CC)nc(SCCCCCCCC)n1 [Compound S8N11D7]	12.2
CCCCCCCCCCCCNc1nc(NCCN(C)C)nc(SCCCCCCCC)n1 [Compound S8N12D1]	11.5
CCCCCCCCCCCCNc1nc(NCCN2CCOCC2)nc(SCCCCCCCC)n1 [Compound S8N12D2]	19.3
CCCCCCCCCCCCNc1nc(NCCN2CCCCC2)nc(SCCCCCCCC)n1 [Compound S8N12D4]	3.81
CCCCCCCCCCCCNc1nc(NCCN(CC)CC)nc(SCCCCCCCC)n1 [Compound S8N12D7]	4.7
CCCCCCCCCCCCCNc1nc(NCCN(C)C)nc(SCCCCCCCC)n1 [Compound S8N13D1]	9.7
CCCCCCCCCCCCCNc1nc(NCCN2CCOCC2)nc(SCCCCCCCC)n1 [Compound S8N13D2]	9.83
CCCCCCCCCCCCCNc1nc(NCCN2CCCCC2)nc(SCCCCCCCC)n1 [Compound S8N13D4]	1.8
CCCCCCCCCCCCCNc1nc(NCCN(CC)CC)nc(SCCCCCCCC)n1 [Compound S8N13D7]	4.5
CCCCCCCCCCCSc1nc(NCCN(C)C)nc(SCCCCCCCC)n1 [Compound S8S11D1]	4.59
CCCCCCCCCCCSc1nc(NCCN2CCOCC2)nc(SCCCCCCCC)n1 [Compound S8S11D2]	8.9

SMILES	Absolute DNA transfection efficiency in Hela cells [%]
CCCCCCCCCCCSc1nc(NCCN2CCCCC2)nc(SCCCCCCCC)n1 [Compound S8S11D4]	4.5
CCCCCCCCCCCSc1nc(NCCN(CC)CC)nc(SCCCCCCCC)n1 [Compound S8S11D7]	5.7
CCCCCCCCCCCCSc1nc(NCCN(C)C)nc(SCCCCCCCC)n1 [Compound S8S12D1]	5.4
CCCCCCCCCCCCSc1nc(NCCN2CCOCC2)nc(SCCCCCCCC)n1 [Compound S8S12D2]	8.7
CCCCCCCCCCCCSc1nc(NCCN2CCCCC2)nc(SCCCCCCCC)n1 [Compound S8S12D4]	5.4
CCCCCCCCCCCCSc1nc(NCCN(CC)CC)nc(SCCCCCCCC)n1 [Compound S8S12D7]	4.6
CCCCCCCCCNc1nc(NCCN(C)C)nc(SCCCCCCCCC)n1 [Compound S9N9D1]	17.7
CCCCCCCCCNc1nc(NCCN2CCOCC2)nc(SCCCCCCCCC)n1 [Compound S9N9D2]	12.0
CCCCCCCCCNc1nc(NCCN2CCCCC2)nc(SCCCCCCCCC)n1 [Compound S9N9D4]	8.9
CCCCCCCCCNc1nc(NCCN(CC)CC)nc(SCCCCCCCCC)n1 [Compound S9N9D7]	24.8
CCCCCCCCCCCNc1nc(NCCN(C)C)nc(SCCCCCCCCC)n1 [Compound S9N11D1]	17.7
CCCCCCCCCCCNc1nc(NCCN2CCOCC2)nc(SCCCCCCCCC)n1 [Compound S9N11D2]	8.2
CCCCCCCCCCCNc1nc(NCCN2CCCCC2)nc(SCCCCCCCCC)n1 [Compound S9N11D4]	4.4
CCCCCCCCCCCNc1nc(NCCN(CC)CC)nc(SCCCCCCCCC)n1 [Compound S9N11D7]	7.8
CCCCCCCCCCCCNc1nc(NCCN(C)C)nc(SCCCCCCCCC)n1 [Compound S9N12D1]	19.7
CCCCCCCCCCCCNc1nc(NCCN2CCOCC2)nc(SCCCCCCCCC)n1 [Compound S9N12D2]	6.5
CCCCCCCCCCCCNc1nc(NCCN2CCCCC2)nc(SCCCCCCCCC)n1 [Compound S9N12D4]	4.1
CCCCCCCCCCCCNc1nc(NCCN(CC)CC)nc(SCCCCCCCCC)n1 [Compound S9N12D7]	6.8

Tested on: Hela cells
Assay: Transfection of Hela cell line, mRNA vectors
Type: cell-based
Details: 50 ng EGFP mRNA per well
Procedure: as §1, §2, §3
Detection (readout): percentage of the number of GFP fluorescent cells relative to the total number of cells (the total number of cells was determined using nucleus dye Hoechst). A commercially available liposome transfection reagent Lipofectamine2000 (Invitrogen) was used as the positive control group, according to the manufacturer's instructions.
Method: the experimental method was basically the same with Example 4, and the mass of EGFP mRNA for transfection was 50 ng per well.

SMILES	Absolute mRNA transfection efficiency in Hela cells [%]
CCCCCCCCCCCSc1nc(NCCN(CC)CC)nc(SCCCCCCC)n1 [Compound S7S11D7]	5.2
CCCCCCCCCCCCSc1nc(NCCN(C)C)nc(SCCCCCCC)n1 [Compound S7S12D1]	4.1
CCCCCCCCCCCCSc1nc(NCCN2CCOCC2)nc(SCCCCCCC)n1 [Compound S7S12D2]	9.2
CCCCCCCCCCCCSc1nc(NCCN2CCCCC2)nc(SCCCCCCC)n1 [Compound S7S12D4]	4.7
CCCCCCCCCCCCSc1nc(NCCN(CC)CC)nc(SCCCCCCC)n1 [Compound S7S12D7]	3.5
CCCCCCCCCCCNc1nc(NCCN(C)C)nc(SCCCCCCCC)n1 [Compound S8N11D1]	21.2
CCCCCCCCCCCNc1nc(NCCN2CCOCC2)nc(SCCCCCCCC)n1 [Compound S8N11D2]	12.7
CCCCCCCCCCCNc1nc(NCCN2CCCCC2)nc(SCCCCCCCC)n1 [Compound S8N11D4]	7.6
CCCCCCCCCCCNc1nc(NCCN(CC)CC)nc(SCCCCCCCC)n1 [Compound S8N11D7]	12.3
CCCCCCCCCCCCNc1nc(NCCN(C)C)nc(SCCCCCCCC)n1 [Compound S8N12D1]	11.5
CCCCCCCCCCCCNc1nc(NCCN2CCOCC2)nc(SCCCCCCCC)n1 [Compound S8N12D2]	19.3
CCCCCCCCCCCCNc1nc(NCCN2CCCCC2)nc(SCCCCCCCC)n1 [Compound S8N12D4]	3.8
CCCCCCCCCCCCNc1nc(NCCN(CC)CC)nc(SCCCCCCCC)n1 [Compound S8N12D7]	4.7
CCCCCCCCCCCCCNc1nc(NCCN(C)C)nc(SCCCCCCCC)n1 [Compound S8N13D1]	9.7
CCCCCCCCCCCCCNc1nc(NCCN2CCOCC2)nc(SCCCCCCCC)n1 [Compound S8N13D2]	9.8
CCCCCCCCCCCCCNc1nc(NCCN2CCCCC2)nc(SCCCCCCCC)n1 [Compound S8N13D4]	1.8
CCCCCCCCCCCCCNc1nc(NCCN(CC)CC)nc(SCCCCCCCC)n1 [Compound S8N13D7]	4.5
CCCCCCCCCCCSc1nc(NCCN(C)C)nc(SCCCCCCCC)n1 [Compound S8S11D1]	4.9
CCCCCCCCCCCSc1nc(NCCN2CCOCC2)nc(SCCCCCCCC)n1 [Compound S8S11D2]	8.6

SMILES	Absolute mRNA transfection efficiency in Hela cells [%]
CCCCCCCCCCCSc1nc(NCCN2CCCCC2)nc(SCCCCCCCC)n1 [Compound S8S11D4]	4.5
CCCCCCCCCCCSc1nc(NCCN(CC)CC)nc(SCCCCCCCC)n1 [Compound S8S11D7]	5.7
CCCCCCCCCCCCSc1nc(NCCN(C)C)nc(SCCCCCCCC)n1 [Compound S8S12D1]	5.4
CCCCCCCCCCCCSc1nc(NCCN2CCOCC2)nc(SCCCCCCCC)n1 [Compound S8S12D2]	8.7
CCCCCCCCCCCCSc1nc(NCCN2CCCCC2)nc(SCCCCCCCC)n1 [Compound S8S12D4]	5.4
CCCCCCCCCCCCSc1nc(NCCN(CC)CC)nc(SCCCCCCCC)n1 [Compound S8S12D7]	4.6
CCCCCCCCCNc1nc(NCCN(C)C)nc(SCCCCCCCCC)n1 [Compound S9N9D1]	17.7
CCCCCCCCCNc1nc(NCCN2CCOCC2)nc(SCCCCCCCCC)n1 [Compound S9N9D2]	12.0
CCCCCCCCCNc1nc(NCCN2CCCCC2)nc(SCCCCCCCCC)n1 [Compound S9N9D4]	8.9
CCCCCCCCCNc1nc(NCCN(CC)CC)nc(SCCCCCCCCC)n1 [Compound S9N9D7]	24.8
CCCCCCCCCCCNc1nc(NCCN(C)C)nc(SCCCCCCCCC)n1 [Compound S9N11D1]	17.7
CCCCCCCCCCCNc1nc(NCCN2CCOCC2)nc(SCCCCCCCCC)n1 [Compound S9N11D2]	8.2
CCCCCCCCCCCNc1nc(NCCN2CCCCC2)nc(SCCCCCCCCC)n1 [Compound S9N11D4]	4.4
CCCCCCCCCCCNc1nc(NCCN(CC)CC)nc(SCCCCCCCCC)n1 [Compound S9N11D7]	7.8
CCCCCCCCCCCCNc1nc(NCCN(C)C)nc(SCCCCCCCCC)n1 [Compound S9N12D1]	19.6
CCCCCCCCCCCCNc1nc(NCCN2CCOCC2)nc(SCCCCCCCCC)n1 [Compound S9N12D2]	6.5
CCCCCCCCCCCCNc1nc(NCCN2CCCCC2)nc(SCCCCCCCCC)n1 [Compound S9N12D4]	4.1
CCCCCCCCCCCCNc1nc(NCCN(CC)CC)nc(SCCCCCCCCC)n1 [Compound S9N12D7]	6.8

Source: patent US20230123334A1, “AMINO LIPID COMPOUND, PREPARATION METHOD THEREFOR, AND APPLICATION THEREOF” (SHENZHEN SHENXIN BIOTECHNOLOGY CO., LTD., priority 2020, published 2023)
